Laboratory results as given in the METLIN SMRT retention time set (Domingo-Almenara et al. 2019).

Assay: gradient 5% acetonitrile 3 min, to 50% in 2 min, to 85% in 15 min, held 3 min, 100 µL/min
Settings: column: Zorbax Extend-C18 2.1 x 50 mm; eluents: water / acetonitrile, 0.1% formic acid
How it was run: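 The mobile phases were water and acetonitrile, each with 0.1% formic acid, pumped at 100 μL/min through a Zorbax Extend-C18 column (2.1 × 50 mm, 1.8 μm). Pure standards were injected as mixtures of ~100 molecules and detected by a quadrupole time-of-flight mass spectrometer in positive and negative ionization mode. Retention time came from computationally picked adduct peaks, each inspected by hand.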

SMILES | RP-LC retention time [s]
COC(=O)c1ccc(NC(=O)N2CCC(n3cnc4ccc(Cl)cc4c3=O)CC2)cc1 | 830
O=C(NCc1nc(-c2ccc(NS(=O)(=O)c3ccccc3)cc2)no1)c1cccs1 | 832
O=C(CC1CCN(C(=O)c2ccc3oc(C4CC4)nc3c2)CC1)NCc1ccccn1 | 605
COCCNC(=O)C1CCN(c2cnc(N3CCCCCC3)nc2)CC1 | 617
Cc1nn(C(C)C(=O)NCCCOC(C)C)c(=O)c2c(C)n(-c3ccccc3)nc12 (centres undefined) | 823
O=C(NCc1ccc(F)cc1)N1CCN(c2nc3ccccc3nc2C(F)(F)F)CC1 | 1010
Cc1ccccc1NC(=O)CC1COc2ccccc2NC1=O (centres undefined) | 700
COc1ccc(CNC(=O)C(=O)NCC(c2ccc3c(c2)OCO3)N2CCOCC2)cc1 (centres undefined) | 643
Cn1cccc1C(=O)C(=O)Nc1ccccc1C(F)(F)F | 1060
O=c1n(Cc2cc(F)cc(F)c2)nc2c(S(=O)(=O)N3CCCC3)cccn12 | 861
CCN1C(=O)Cc2c(C)nc(-c3ccc(OC)cc3)nc21 | 880
C#CCSc1n[nH]c(-c2ccco2)n1 | 719
CCCn1nccc1-c1csc(S(=O)(=O)N2CCCC2)c1 | 912
CCOC(=O)Cc1c(C)nc2c(-c3ccccc3)cnn2c1C | 1000
O=C(Nc1ccccc1)N1CCc2nc(-c3ccc(Cl)cc3)ncc2C1 | 997
COc1ccc(OCc2nnc3sc(-c4ccc(OC)cc4OC)nn23)cc1 | 989
CCOC(=O)c1nc(N(CC)c2cc(C)ccc2C)c2ccccc2n1 | 1130
COC1CCC12CCN(Cc1cccc(C#N)c1)CC2 (centres undefined) | 597
CC1CCN(c2nn(CC(=O)NCc3cccs3)c(=O)c3ccccc23)CC1 | 1030
CCc1ccc(C2=C(C)C(N3CCCN(C(=O)C(C)(C)C)CC3)=NS2(=O)=O)cc1 | 901
O=C(NCc1cccc(C(F)(F)F)c1)C1CCCN(c2nccnc2Sc2ccccc2)C1 (centres undefined) | 1100
CCn1ccc(C(=O)N2CC(c3nc(-c4ccsc4)nn3C)C2)n1 | 695
CCCC(CCC)C(=O)N1CCCN(C2=NS(=O)(=O)C(c3ccc(C)cc3)=C2C)CC1 | 1010

SMILES | RP-LC retention time [s]
CCn1cnc(S(=O)(=O)N2CCC(C(=O)NCc3ccccc3OC)CC2)c1 | 902
CC(C)c1noc(C2(NC(=O)CCC3CCCC3)CCCCC2)n1 | 1120
Cc1ccc(NC(=O)Cn2nc(N3CCOCC3)c3ccccc3c2=O)c(Br)c1 | 884
CCOc1ccccc1NC(=O)c1c(O)c2cccnc2n(-c2ccccc2)c1=O | 1330
CCCn1cc(CCNC(=O)Nc2ccc(Cl)cc2F)c2cccnc21 | 876
COc1ccc(Cl)cc1Nc1ccnc2c1c(=O)n(C)c(=O)n2C | 951
CN1CCN(CCCNC(=O)CCCn2c(=O)c3cccn3c3ccc(F)cc32)CC1 | 582
COC1CCC12CCN(C(=O)c1c(C)noc1C)CC2 (centres undefined) | 716
CN(C)c1cc(-n2cnc(C(=O)Nc3ccc4c(c3)OCCO4)c2)ncn1 | 755
Cc1ccc2nc(C(=O)NCc3cccc(F)c3)cn2c1 | 689
COc1ccc(C2CC(=O)N(c3ccc(F)cc3F)C(=O)C2)cc1 | 931
O=C(CSc1nnc2sc3ccccc3n12)Nc1ccc2c(c1)OCO2 | 691
CCc1noc(-c2ccnc(-n3cnc(C(=O)NCC(C)C)c3)c2)n1 | 983
COc1ccc(C2(C(=O)N3C[C@H]4C[C@H](C3)[C@H]3CCCC(=O)N3C4)CC2)cc1 | 679
Cc1ncc2c(n1)C[C@@H]1CC[C@H]2N1S(=O)(=O)c1ccc2c(c1)C(C)(C)C(=O)N2 | 636
CCc1nc(-c2csc(S(=O)(=O)N3CCCC(C(=O)Nc4cccnc4)C3)c2)no1 (centres undefined) | 678
Cc1cc2c(cc1NC(=O)CCc1ccccc1)n(C)c(=O)n2C | 715
Cc1nc(-c2cc(S(=O)(=O)Nc3cc(F)ccc3F)c(C)s2)sc1C | 1100
Cc1cccc(-c2noc(Cc3nnc(-c4cc(C)cc(C)c4)o3)n2)c1 | 842
O=c1c2cc(-c3ccc(F)cc3)nn2ccn1Cc1ccc(Cl)cc1 | 1090
Cc1noc(-c2cccc(OC3CN(C(=O)c4sccc4C)C3)c2)n1 | 900
C=CCN1C(=O)COc2ccc(-c3nc(NC(=O)C4CCCCC4)sc3C)cc21 | 1080
CCN1C(=O)COc2ccc(-c3noc(-c4ccc(CS(=O)(=O)c5ccccc5)cc4)n3)cc21 | 1060

SMILES | RP-LC retention time [s]
O=C(c1ccsc1)N1CCCn2cc(-c3ccccc3F)nc21 | 673
Cc1ccc(C)c(NC(=O)N2CCN(c3cc(-c4cccnc4)[nH]n3)CC2)c1 | 632
CCCN1C(=O)c2cc(C(=O)NCc3ccc(F)cc3)nn2CC1(C)C(=O)NC1CCCC1 (centres undefined) | 824
Cn1c(=O)c(N2CCCC(C(=O)NCc3ccco3)C2)nc2cccnc21 (centres undefined) | 788
Cc1ccc(Oc2nccn3c(=O)n(CC(=O)NC(C)CCc4ccccc4)nc23)cc1 (centres undefined) | 1080
COc1ccccc1NC(=O)N1CCC2(CC1)NC(=O)c1cc(F)ccc1N2C | 756
CCOc1ccc(CNC(=O)Cc2csc3nc(-c4ccc(C)c(C)c4)cn23)cc1OC | 810
O=C(Cc1cccnc1)N1CCC(c2nc(-c3ccncc3)no2)C1 (centres undefined) | 548
O=C(NCc1cccs1)C(=O)Nc1ccncc1 | 548
CCN1CCCn2cc(S(=O)(=O)N3CCN(c4ccccc4)CC3)cc2C1=O | 813
CCc1ccc(-c2noc(Cn3nc(-c4ccc5c(c4)OCO5)ccc3=O)n2)cc1 | 1200
Cc1ccc(NC(=O)N2CCCC(C)(C(=O)NCc3ccccc3C)C2)c(C)c1 (centres undefined) | 1000
c1cc(CN2CCCCC2)ccc1CC1CCNCC1 | 528
Cc1cccc(-c2noc(Cn3ccn(-c4ccccc4C)c(=O)c3=O)n2)c1 | 865
Cn1ccc2cc(S(=O)(=O)N3CCC(C(=O)NC4CCN(Cc5ccccc5)CC4)CC3)ccc21 | 666
O=C(Cn1cccc1-c1nc(-c2ccc3c(c2)OCO3)no1)Nc1ccc(F)cc1 | 994
CCOc1ccc(C2Cn3nnc(-c4nc(-c5cccc(Br)c5)no4)c3CO2)cc1 (centres undefined) | 1310
Cn1cccc1C(=O)N1CCN(c2cc(-c3ccc(Cl)cc3)[nH]n2)CC1 | 832
O=C1NC(C(=O)NC2CCCCC2)Cn2cccc21 (centres undefined) | 651
COc1ccc(C(=O)Nc2nc(-c3ccccc3)cs2)cc1 | 1040
Cn1ccc2cc(S(=O)(=O)N3CCCC(C(=O)NC4CCN(Cc5ccccc5)CC4)C3)ccc21 (centres undefined) | 685
O=C(Cc1csc2nc(-c3ccccc3)cn12)NCc1cccc(Br)c1 | 872
Cc1ccccc1Nc1c(-c2cccc(N(C)C)c2)nc2ccc(Br)cn12 | 847

SMILES | RP-LC retention time [s]
COc1ccccc1-c1cc(C(=O)N2CCCN(c3ccc(=O)n(-c4ccccc4)n3)CC2)[nH]n1 | 750
COc1ccc(NC(=O)c2noc3c2CC(C)CC3)c(OC)c1 (centres undefined) | 1170
O=c1n(Cc2ccccc2Cl)nc2c(S(=O)(=O)N3CCOCC3)cccn12 | 774
Cc1cc(N2CCN(S(=O)(=O)c3cc(F)ccc3F)CC2)nc(N2CCCCC2)n1 | 769
CCCN1C(=O)c2cc(S(=O)(=O)NC(C)c3ccccc3)ccc2Oc2cccnc21 (centres undefined) | 1070
Cc1ccc(N2CCC(NC(=O)c3cc(F)cc(F)c3)C2=O)cc1C (centres undefined) | 943
COc1ccc(-c2cc(C(=O)N3CCCC3)c(C)n2C)cc1 | 589
Cc1ccc(Nc2nc(-c3ccc4c(c3)OCO4)cs2)nc1 | 863
Cc1cccc(Oc2cc(N3CCC(C(=O)NCCCOC(C)C)CC3)ncn2)c1C | 883
Cc1ccc(N(C)S(=O)(=O)c2cc(-c3[nH]ncc3C(=O)N3CCCCC3)oc2C)cc1 | 835
CCc1noc2nc(CCC(=O)NCCCN3CCN(CC)CC3)nc(N3CCCCC3)c12 | 595
O=C(Cn1nc2c3cc(-c4ccc(F)cc4)nn3ccn2c1=O)N1CCN(c2ccc(F)cc2)CC1 | 920
CC(C)C(=O)Nc1ccc(-n2cnc(C(=O)NC(C)c3ccc(F)cc3)c2)nc1 (centres undefined) | 777
CN1CC[C@@]23CCCC[C@@H]2[C@@H]1Cc1ccc(O)cc13 | 644
Cc1ccc(C(=O)Nc2ccc3c(c2)Sc2ncccc2C(=O)N3C(C)C)cc1C | 997
Cc1nnc2n1CCC(NC(=O)CC1=CCCCC1)CC2 (centres undefined) | 605
COc1ccc2c(Sc3ccccc3)c(C(=O)N3CCN(c4ccccn4)CC3)[nH]c2c1 | 750
CCCNC(=O)CCc1nc2ccccc2n(CC(=O)Nc2c(C)cccc2CC)c1=O | 810
O=S(=O)(Cc1ccccc1F)N1CCC[C@H]1c1nc(-c2ccc(F)cc2)n[nH]1 | 837
Cc1nn(C(C)C)c(C)c1S(=O)(=O)N1CCN(C(=O)c2cncc(Br)c2)CC1 | 762
